Holding throughout (assay type): cell-based
In one series the test system is PD-L1 (CD274). The experiment in a line: PD-L1 mRNA level (RT-qPCR) in CD34+ cells after ex vivo treatment with agent. The settings on record: mRNA by RT-qPCR, normalized against untreated cells; human CD34+ cells, 24 hours at 37° C. How it is done:
(§1) Human CD34+ stem and progenitor cells isolated from mobilized peripheral blood from three donors were ex vivo treated in […]® (StemCell Technologies) for 24 hours at 37° C. with one or more exogenous agents. Following cell treatments, gross mRNA levels were normalized against gross mRNA levels from the untreated cells […]. Levels of PD-L1 or IDO-1 mRNA were quantified from PICOPURE® isolated mRNA (Life Technologies) using an Assay on Demand TAQMAN® RT-qPCR assay (Life Technologies).
Background: In qPCR the cycle at which signal appears reflects the starting amount.

In series [1] the test system is Human CD34+ stem and progenitor cells. The experiment in a line: Viability of CD34+ cells after ex vivo treatment with agent. More on the design: concentration or dose not given beside the values. The settings on record: human CD34+ cells from mobilized peripheral blood, 24 hours at 37° C. with agent.
A further series concerns IDO-1. Put plainly: IDO-1 mRNA level (RT-qPCR) in CD34+ cells after ex vivo treatment with agent. Particulars: mRNA by RT-qPCR, normalized against untreated cells; human CD34+ cells, 24 hours at 37° C. On the procedure:
as §1

Where a name gives a salt, the structure may show the parent alone.

For `C=CC(N)CCC(=O)O` (stereo not drawn) [Vigabatrin], the PD-L1 fold change with PD-L1 (CD274) is on record as 16.76 fold. The “% Viability” value in series [1] (Table 1) was 67%.

`C[C@@H]1C[C@H]2[C@@H]3C[C@H](F)C4=CC(=O)C=C[C@]4(C)[C@@]3(Cl)[C@@H](O)C[C@]2(C)[C@H]1C(=O)COC(=O)C(C)(C)C` [Clocortolone pivalate] came in with a PD-L1 fold change in the series on PD-L1 (CD274) of 8.64 fold. For the same compound, in series [1] (Table 1), the “% Viability” value was 84.9%.

For `CNCCCC1c2ccccc2C=Cc2ccccc21` [Protriptyline], in the series with IDO-1, the IDO-1 fold change was found to be 5.74 fold. In series [1] (Table 2), the “% Viability” value was 79.4%.

`OCCN1CCN(CCCN2c3ccccc3Sc3ccc(C(F)(F)F)cc32)CC1` [Fluphenazine]: the PD-L1 fold change with PD-L1 (CD274) was 7.58 fold. In the series on IDO-1, this compound showed an IDO-1 fold change of 14.19 fold. Besides, the “% Viability” value in series [1] (Table 1) and in series [1] (Table 2) was 86% throughout.

For the compound Tyrphostin AG 835, in the series with PD-L1 (CD274), the PD-L1 fold change is 32.57 fold. Further, the “% Viability” value in series [1] (Table 1) was found to be 61.3%.

`CC1(C)O[C@@H]2C[C@H]3[C@@H]4C[C@H](F)C5=CC(=O)C=C[C@]5(C)[C@@]4(F)[C@@H](O)C[C@]3(C)[C@]2(C(=O)CO)O1` [Fluocinolone acetonide]: the PD-L1 fold change with PD-L1 (CD274) came to 10.58 fold. The “% Viability” value in series [1] (Table 1) turned out to be 82.9%.

In the series on PD-L1 (CD274), `CCC(=O)O[C@]1(C(=O)CCl)[C@@H](C)C[C@H]2[C@@H]3CCC4=CC(=O)C=C[C@]4(C)[C@@]3(F)[C@@H](O)C[C@@]21C` [Clobetasol propionate] registered a PD-L1 fold change of 9.27 fold. Besides, in series [1] (Table 1), the “% Viability” value was found to be 83%.

As for `N#Cc1ccc(C(c2ccc(C#N)cc2)n2cncn2)cc1` [Letrozole], the IDO-1 fold change with IDO-1 is reported as 4.38 fold. In addition, the “% Viability” value in series [1] (Table 2) is recorded as 81.3%.

Consider `Nc1ccn([C@@H]2O[C@H](CO)[C@@H](O)C2(F)F)c(=O)n1` [Gemcitabine], for which, in the series on IDO-1, the IDO-1 fold change is given as 30.13 fold. The “% Viability” value in series [1] (Table 2) is recorded as 81.4%.

In turn, `Nc1nc(F)nc2c1ncn2[C@@H]1O[C@H](CO)[C@@H](O)[C@@H]1O` [Fludarabine] returned an IDO-1 fold change in the series on IDO-1 of 4.22 fold. Moreover, the “% Viability” value in series [1] (Table 2) is reported as 82.5%.

`NC(=O)N/N=C/c1ccc([N+](=O)[O-])o1` [Nitro fural]: in the series on PD-L1 (CD274), the PD-L1 fold change stood at 10.28 fold. The “% Viability” value in series [1] (Table 1) came out at 87.2%.

As for `Nc1ccc(C(=O)O)c(O)c1` [4-aminosalicylic acid], the IDO-1 fold change with IDO-1 turned out to be 4.07 fold. Besides, in series [1] (Table 2), the “% Viability” value is 85.3%.

In the series with IDO-1, `CN(C)CCC=C1c2ccccc2C=Cc2ccccc21` [Cyclobenzaprine] came in with an IDO-1 fold change of 4.65 fold. Also, the “% Viability” value in series [1] (Table 2) is listed as 72.7%.

In the series with IDO-1, `CNC(C)CCC=C(C)C.CNC(C)CCC=C(C)C.O=C(O)[C@@H](O)[C@H](O)[C@H](O)[C@@H](O)C(=O)O` [Isometheptene mucate] came in with an IDO-1 fold change of 6.98 fold. Moreover, the “% Viability” value in series [1] (Table 2) worked out at 83.7%.

Take `Cc1scc2c1N(C(=O)CN1CCN(C)CC1)c1ccccc1NC2=O` [Telenzepine]: in the series on IDO-1, the IDO-1 fold change was 4.82 fold. Besides, the “% Viability” value in series [1] (Table 2) is listed as 88.9%.

Turning to `C[C@H]1C[C@H]2[C@@H]3CCC4=CC(=O)C=C[C@]4(C)[C@@]3(F)[C@@H](O)C[C@]2(C)[C@@]1(O)C(=O)CO` [Betamethasone], the PD-L1 fold change in the series on PD-L1 (CD274) amounted to 4.16 fold. Besides, the “% Viability” value in series [1] (Table 1) was determined as 86.8%.

As to `CN[C@@H]1[C@H](O[C@H]2[C@H](O[C@H]3[C@H](O)[C@@H](O)[C@H](NC(=N)N)[C@@H](O)[C@@H]3NC(=N)N)O[C@@H](C)[C@]2(O)CO)O[C@@H](CO)[C@H](O)[C@H]1O` [Dihydrostreptomycin sulfate], the IDO-1 fold change in the series on IDO-1 came to 6.19 fold. Further, the “% Viability” value in series [1] (Table 2) stood at 84.5%.

The record behind these values is patent US20250333702A1, “CELLS WITH INCREASED IMMUNO-REGULATORY PROPERTIES AND METHODS FOR THEIR USE AND MANUFACTURE” (The Children's Medical Center Corporation, priority 2015, published 2025).
